The source of these data is ChEMBL document CHEMBL1126661, “Oxidation chemistry of the endogenous central nervous system alkaloid salsolinol-1-carboxylic acid” (J Med Chem, 1993).

The test system of the data set is Mus musculus. In words: Compound was evaluated for its lethal dose (LD50) by dissolving in 5 microL of isotonic saline and injected intracranially in mice which resulted in the death of 50% of the treated animals within 1 hour. As to conditions: in vivo, other. The format is ADME, organism-based.

Regarding `CC1=NCCc2c1cc(O)c(O)c2O`, the LD50 was found to be 38.9 µg.
Next, `CC1=NCCc2cc(O)c(O)cc21`: 31.1 µg.
